# Reference: ChEMBL document CHEMBL1139978, “Synthesis and radiopharmacological characterization of [11C]AL-438 as a nonsteroidal ligand for imaging brain glucocorticoid receptors” (Bioorg Med Chem Lett, 2007)
# What was measured:
# Rattus norvegicus [1] = test: Biodistribution in Wistar rat fat at 20 MBq, iv after 5 mins; type: ADME, organism-based, Adipose tissue; conditions: in vivo
# Rattus norvegicus [2] = test: Biodistribution in Wistar rat fat at 20 MBq, iv after 60 mins; type: ADME, organism-based, Adipose tissue; conditions: in vivo, 1 h
# Rattus norvegicus [3] = test: Biodistribution in corticosterone pretreated Wistar rat fat at 20 MBq, iv after 5 mins; type: ADME, organism-based, Adipose tissue; conditions: in vivo
# Rattus norvegicus [4] = test: Biodistribution in corticosterone pretreated Wistar rat fat at 20 MBq, iv after 60 mins; type: ADME, organism-based, Adipose tissue; conditions: in vivo, 1 h
# Rattus norvegicus [5] = test: Biodistribution in Wistar rat brown fat at 20 MBq, iv after 5 mins; type: ADME, organism-based, Brown adipose tissue; conditions: in vivo
# Rattus norvegicus [6] = test: Biodistribution in Wistar rat brown fat at 20 MBq, iv after 60 mins; type: ADME, organism-based, Brown adipose tissue; conditions: in vivo, 1 h
# Rattus norvegicus [7] = test: Biodistribution in corticosterone pretreated Wistar rat brown fat at 20 MBq, iv after 5 mins; type: ADME, organism-based, Brown adipose tissue; conditions: in vivo
# Rattus norvegicus [8] = test: Biodistribution in corticosterone pretreated Wistar rat brown fat at 20 MBq, iv after 60 mins; type: ADME, organism-based, Brown adipose tissue; conditions: in vivo, 1 h
# Muscle tissue [9] = test: Biodistribution in Wistar rat muscle at 20 MBq, iv after 5 mins; type: ADME, organism-based; conditions: in vivo
# Muscle tissue [10] = test: Biodistribution in Wistar rat muscle at 20 MBq, iv after 60 mins; type: ADME, organism-based; conditions: in vivo, 1 h
# Muscle tissue [11] = test: Biodistribution in corticosterone pretreated Wistar rat muscle at 20 MBq, iv after 5 mins; type: ADME, organism-based; conditions: in vivo
# Muscle tissue [12] = test: Biodistribution in corticosterone pretreated Wistar rat muscle at 20 MBq, iv after 60 mins; type: ADME, organism-based; conditions: in vivo, 1 h
# Heart [13] = test: Biodistribution in Wistar rat heart at 20 MBq, iv after 5 mins; type: ADME, organism-based; conditions: in vivo
# Heart [14] = test: Biodistribution in Wistar rat heart at 20 MBq, iv after 60 mins; type: ADME, organism-based; conditions: in vivo, 1 h
# Heart [15] = test: Biodistribution in corticosterone pretreated Wistar rat heart at 20 MBq, iv after 5 mins; type: ADME, organism-based; conditions: in vivo
# Heart [16] = test: Biodistribution in corticosterone pretreated Wistar rat heart at 20 MBq, iv after 60 mins; type: ADME, organism-based; conditions: in vivo, 1 h
# Lung [17] = test: Biodistribution in Wistar rat lung at 20 MBq, iv after 5 mins; type: ADME, organism-based; conditions: in vivo
# Lung [18] = test: Biodistribution in Wistar rat lung at 20 MBq, iv after 60 mins; type: ADME, organism-based; conditions: in vivo, 1 h
# Lung [19] = test: Biodistribution in corticosterone pretreated Wistar rat lung at 20 MBq, iv after 5 mins; type: ADME, organism-based; conditions: in vivo
# Lung [20] = test: Biodistribution in corticosterone pretreated Wistar rat lung at 20 MBq, iv after 60 mins; type: ADME, organism-based; conditions: in vivo, 1 h
# Thymus [21] = test: Biodistribution in Wistar rat thymus at 20 MBq, iv after 5 mins; type: ADME, organism-based; conditions: in vivo
# Thymus [22] = test: Biodistribution in Wistar rat thymus at 20 MBq, iv after 60 mins; type: ADME, organism-based; conditions: in vivo, 1 h
# Thymus [23] = test: Biodistribution in corticosterone pretreated Wistar rat thymus at 20 MBq, iv after 5 mins; type: ADME, organism-based; conditions: in vivo
# Thymus [24] = test: Biodistribution in corticosterone pretreated Wistar rat thymus at 20 MBq, iv after 60 mins; type: ADME, organism-based; conditions: in vivo, 1 h
# Harderian gland [25] = test: Biodistribution in Wistar rat harderian gland at 20 MBq, iv after 5 mins; type: ADME, organism-based; conditions: in vivo
# Harderian gland [26] = test: Biodistribution in Wistar rat harderian gland at 20 MBq, iv after 60 mins; type: ADME, organism-based; conditions: in vivo, 1 h
# Harderian gland [27] = test: Biodistribution in corticosterone pretreated Wistar rat harderian gland at 20 MBq, iv after 5 mins; type: ADME, organism-based; conditions: in vivo
# Harderian gland [28] = test: Biodistribution in corticosterone pretreated Wistar rat harderian gland at 20 MBq, iv after 60 mins; type: ADME, organism-based; conditions: in vivo, 1 h
# Liver [29] = test: Biodistribution in Wistar rat liver at 20 MBq, iv after 5 mins; type: ADME, organism-based; conditions: in vivo
# Liver [30] = test: Biodistribution in Wistar rat liver at 20 MBq, iv after 60 mins; type: ADME, organism-based; conditions: in vivo, 1 h
# Liver [31] = test: Biodistribution in corticosterone pretreated Wistar rat liver at 20 MBq, iv after 5 mins; type: ADME, organism-based; conditions: in vivo
# Liver [32] = test: Biodistribution in corticosterone pretreated Wistar rat liver at 20 MBq, iv after 60 mins; type: ADME, organism-based; conditions: in vivo, 1 h
# Femur [33] = test: Biodistribution in Wistar rat femur at 20 MBq, iv after 5 mins; type: ADME, organism-based; conditions: in vivo
# Femur [34] = test: Biodistribution in Wistar rat femur at 20 MBq, iv after 60 mins; type: ADME, organism-based; conditions: in vivo, 1 h
# Femur [35] = test: Biodistribution in corticosterone pretreated Wistar rat femur at 20 MBq, iv after 5 mins; type: ADME, organism-based; conditions: in vivo
# Femur [36] = test: Biodistribution in corticosterone pretreated Wistar rat femur at 20 MBq, iv after 60 mins; type: ADME, organism-based; conditions: in vivo, 1 h
# Rattus norvegicus [37] = test: Biodistribution in Wistar rat testis at 20 MBq, iv after 5 mins; type: ADME, organism-based; conditions: in vivo
# Rattus norvegicus [38] = test: Biodistribution in Wistar rat testis at 20 MBq, iv after 60 mins; type: ADME, organism-based; conditions: in vivo, 1 h
# Rattus norvegicus [39] = test: Biodistribution in corticosterone pretreated Wistar rat testis at 20 MBq, iv after 5 mins; type: ADME, organism-based; conditions: in vivo
# Rattus norvegicus [40] = test: Biodistribution in corticosterone pretreated Wistar rat testis at 20 MBq, iv after 60 mins; type: ADME, organism-based; conditions: in vivo, 1 h
compound,measurement,setting,value
C=CCC1Oc2cccc(O[11CH3])c2-c2ccc3c(c21)C(C)=CC(C)(C)N3 (stereo not given),Drug uptake,Rattus norvegicus [1],1.19 % ID/g
same,Drug uptake,Rattus norvegicus [2],3.11 % ID/g
same,Drug uptake,Rattus norvegicus [3],1.51 % ID/g
same,Drug uptake,Rattus norvegicus [4],2.43 % ID/g
same,Drug uptake,Rattus norvegicus [5],5.22 % ID/g
same,Drug uptake,Rattus norvegicus [6],8.54 % ID/g
same,Drug uptake,Rattus norvegicus [7],5 % ID/g
same,Drug uptake,Rattus norvegicus [8],7.44 % ID/g
same,Drug uptake,Muscle tissue [9],0.94 % ID/g
same,Drug uptake,Muscle tissue [10],0.59 % ID/g
same,Drug uptake,Muscle tissue [11],0.9 % ID/g
same,Drug uptake,Muscle tissue [12],0.52 % ID/g
same,Drug uptake,Heart [13],1.7 % ID/g
same,Drug uptake,Heart [14],0.75 % ID/g
same,Drug uptake,Heart [15],1.91 % ID/g
same,Drug uptake,Heart [16],0.67 % ID/g
same,Drug uptake,Lung [17],1.44 % ID/g
same,Drug uptake,Lung [18],1.11 % ID/g
same,Drug uptake,Lung [19],1.44 % ID/g
same,Drug uptake,Lung [20],1.03 % ID/g
same,Drug uptake,Thymus [21],1.57 % ID/g
same,Drug uptake,Thymus [22],1.48 % ID/g
same,Drug uptake,Thymus [23],1.46 % ID/g
same,Drug uptake,Thymus [24],1.6 % ID/g
same,Drug uptake,Harderian gland [25],1.68 % ID/g
same,Drug uptake,Harderian gland [26],3.35 % ID/g
same,Drug uptake,Harderian gland [27],1.65 % ID/g
same,Drug uptake,Harderian gland [28],2.87 % ID/g
same,Drug uptake,Liver [29],2.65 % ID/g
same,Drug uptake,Liver [30],2.54 % ID/g
same,Drug uptake,Liver [31],3.04 % ID/g
same,Drug uptake,Liver [32],3.84 % ID/g
same,Drug uptake,Femur [33],0.9 % ID/g
same,Drug uptake,Femur [34],0.88 % ID/g
same,Drug uptake,Femur [35],0.85 % ID/g
same,Drug uptake,Femur [36],0.7 % ID/g
same,Drug uptake,Rattus norvegicus [37],0.47 % ID/g
same,Drug uptake,Rattus norvegicus [38],0.52 % ID/g
same,Drug uptake,Rattus norvegicus [39],0.43 % ID/g
same,Drug uptake,Rattus norvegicus [40],0.5 % ID/g
